# Measurements taken from patent US12539292B2, “BRM targeting compounds and associated methods of use” (Arvinas Operations, Inc., priority 2018, dated 2026).
# Read-outs that look alike come from different tables or passages of the source.
# Target: T1, BRM (Homo sapiens, UniProt P51531)
# T1 construct: In-Cell Western Screen of BRM Degradation in SW1573 Cells; endogenous in cells; host or cells: SW1573
# Assay: In-cell Western screen of BRM degradation in SW1573 cells (Dmax and DC50)
# Format: cell-based
# How it was run: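 SW1573 cells were treated overnight (18-20 hours) with compound at 0.1% final DMSO. They were then PFA-fixed, permeabilised with Triton X-100 and immunostained with 800 nm/680 nm secondary antibodies. BRM signal was quantified by LI-COR in-cell Western imaging to derive Dmax and DC50.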
# [1] = BRM degradation, SW1573 cells, read-out: DC50
# [2] = BRM degradation, SW1573 cells, tested at the top concentration of between 0.3 and 10 μM, read-out: Dmax (%) (% degraded)
# [3] = SW1573, % degraded, when tested at the top concentration of between 0.3 and 10 μM, read-out: BRM Dmax (%)
# [4] = degradation of BRM, read-out: BRM DC50
# T1 sequence (P51531 whole entry): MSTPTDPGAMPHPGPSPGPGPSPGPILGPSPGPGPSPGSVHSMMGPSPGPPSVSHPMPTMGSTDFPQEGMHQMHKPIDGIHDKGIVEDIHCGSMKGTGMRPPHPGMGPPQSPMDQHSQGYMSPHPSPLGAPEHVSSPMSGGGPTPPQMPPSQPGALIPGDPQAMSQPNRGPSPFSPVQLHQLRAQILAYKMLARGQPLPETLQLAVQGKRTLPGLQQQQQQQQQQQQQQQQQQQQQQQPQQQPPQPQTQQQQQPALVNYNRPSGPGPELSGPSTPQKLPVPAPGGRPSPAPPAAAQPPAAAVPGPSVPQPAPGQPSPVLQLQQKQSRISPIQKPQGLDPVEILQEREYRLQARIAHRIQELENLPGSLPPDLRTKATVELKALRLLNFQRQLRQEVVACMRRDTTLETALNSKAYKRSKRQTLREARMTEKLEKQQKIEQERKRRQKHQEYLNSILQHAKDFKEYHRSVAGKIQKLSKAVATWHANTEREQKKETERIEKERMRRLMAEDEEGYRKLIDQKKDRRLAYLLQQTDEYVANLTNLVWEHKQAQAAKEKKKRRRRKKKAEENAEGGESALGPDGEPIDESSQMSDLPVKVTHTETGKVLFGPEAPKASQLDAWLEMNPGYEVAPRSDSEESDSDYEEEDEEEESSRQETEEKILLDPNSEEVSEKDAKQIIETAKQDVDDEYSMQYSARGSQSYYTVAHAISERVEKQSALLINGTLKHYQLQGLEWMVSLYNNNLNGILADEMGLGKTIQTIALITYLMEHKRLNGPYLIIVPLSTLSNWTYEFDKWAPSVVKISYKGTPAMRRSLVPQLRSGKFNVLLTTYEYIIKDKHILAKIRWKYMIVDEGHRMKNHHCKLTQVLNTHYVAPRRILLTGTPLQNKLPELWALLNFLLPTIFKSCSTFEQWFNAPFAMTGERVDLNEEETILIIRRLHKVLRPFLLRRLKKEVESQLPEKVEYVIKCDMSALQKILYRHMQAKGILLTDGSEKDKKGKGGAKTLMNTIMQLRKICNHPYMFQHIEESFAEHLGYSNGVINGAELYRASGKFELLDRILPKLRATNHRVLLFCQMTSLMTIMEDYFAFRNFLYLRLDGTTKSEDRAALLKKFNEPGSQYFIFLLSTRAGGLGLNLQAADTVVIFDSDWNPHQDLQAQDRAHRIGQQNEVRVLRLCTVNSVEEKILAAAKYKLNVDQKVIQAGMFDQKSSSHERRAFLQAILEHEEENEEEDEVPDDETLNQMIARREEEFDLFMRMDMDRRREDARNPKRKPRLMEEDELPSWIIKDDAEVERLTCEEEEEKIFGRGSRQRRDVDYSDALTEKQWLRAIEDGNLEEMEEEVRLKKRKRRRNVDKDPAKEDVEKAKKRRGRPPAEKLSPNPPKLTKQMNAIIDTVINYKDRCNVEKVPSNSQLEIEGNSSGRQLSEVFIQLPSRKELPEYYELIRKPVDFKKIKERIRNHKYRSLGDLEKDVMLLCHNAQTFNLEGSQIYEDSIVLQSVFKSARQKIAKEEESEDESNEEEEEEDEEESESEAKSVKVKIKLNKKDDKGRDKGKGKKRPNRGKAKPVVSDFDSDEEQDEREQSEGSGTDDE
SMILES,DC50 [1],Dmax [2],Dmax [3],DC50 [4],other results
"Cc1ncsc1-c1ccc([C@H](C)NC(=O)[C@@H]2C[C@@H](O)CN2C(=O)[C@@H](c2cc(CCCN3CCC(O[C@H]4C[C@H](Oc5cc(N6C7CCC6CN(c6cc(-c8ccccc8O)nnc6N)C7)ccn5)C4)CC3)no2)C(C)C)cc1 [compound 191, (2S,4R)-1-((2R)-2-(3-(3-(4-((1r,3R)-3-((4-(3-(3-amino-6-(2-hydroxyphenyl)pyridazin-4-yl)-3,8-diazabicyclo[3.2.1]octan-8-yl)pyridin-2-yl)oxy)cyclobutoxy)piperidin-1-yl)propyl)isoxazol-5-yl)-3-methylbutanoyl)-4-hydroxy-N-((S)-1-(4-(4-methylthiazol-5-yl)phenyl)ethyl)pyrrolidine-2-carboxamide]",< 2.5 nM,> 75%,–,–,–
"Cc1ncsc1-c1ccc([C@H](C)NC(=O)[C@@H]2C[C@@H](O)CN2C(=O)[C@H](c2cc(OCCC3CCN([C@H]4C[C@H](CN5CCOC6(CCN(c7cc(-c8ccccc8O)nnc7N)CC6)C5)C4)CC3)no2)C(C)C)cc1 [compound 444, (2S,4R)-1-((S)-2-(3-(2-(1-((1r,3S)-3-((9-(3-amino-6-(2-hydroxyphenyl)pyridazin-4-yl)-1-oxa-4,9-diazaspiro[5.5]undecan-4-yl)methyl)cyclobutyl)piperidin-4-yl)ethoxy)isoxazol-5-yl)-3-methylbutanoyl)-4-hydroxy-N-((S)-1-(4-(4-methylthiazol-5-yl)phenyl)ethyl)pyrrolidine-2-carboxamide]",–,–,> 75%,< 2.5 nM,–
"Cc1cnn(C)c1-c1ccc([C@H](C)NC(=O)[C@@H]2C[C@@H](O)CN2C(=O)[C@H](c2cc(OCCN3CCC(O[C@H]4C[C@H](Oc5cc(N6C7CCC6CN(c6cc(-c8ccccc8O)nnc6N)C7)ccn5)C4)CC3)no2)C(C)C)cc1 [compound 294, (2S,4R)-1-((2S)-2-(3-(2-(4-((1r,3S)-3-((4-(3-(3-amino-6-(2-hydroxyphenyl)pyridazin-4-yl)-3,8-diazabicyclo[3.2.1]octan-8-yl)pyridin-2-yl)oxy)cyclobutoxy)piperidin-1-yl)ethoxy)isoxazol-5-yl)-3-methylbutanoyl)-N-((S)-1-(4-(1,4-dimethyl-1H-pyrazol-5-yl)phenyl)ethyl)-4-hydroxypyrrolidine-2-carboxamide]",2.5 to 10 nM,> 75%,–,–,–
"Cc1ncsc1-c1ccc([C@H](C)NC(=O)[C@@H]2C[C@@H](O)CN2C(=O)[C@H](c2cc(OC/C=C/c3ccc(O[C@H]4C[C@H](Oc5cc(N6C7CCC6CN(c6cc(-c8ccccc8O)nnc6N)C7)ccn5)C4)cn3)no2)C(C)C)cc1 [compound 186, (2S,4R)-1-((2S)-2-(3-(((E)-3-(5-((1r,3S)-3-((4-(3-(3-amino-6-(2-hydroxyphenyl)pyridazin-4-yl)-3,8-diazabicyclo[3.2.1]octan-8-yl)pyridin-2-yl)oxy)cyclobutoxy)pyridin-2-yl)allyl)oxy)isoxazol-5-yl)-3-methylbutanoyl)-4-hydroxy-N-((S)-1-(4-(4-methylthiazol-5-yl)phenyl)ethyl)pyrrolidine-2-carboxamide]",10 to 30 nM,> 75%,–,–,–
"Cc1ncsc1-c1ncc([C@@H](C)NC(=O)[C@@H]2C[C@@H](O)CN2C(=O)C(c2cc(OCCN3CCC(O[C@H]4C[C@H](Oc5cc(N6C7CCC6CN(c6cc(-c8ccccc8O)nnc6N)C7)ccn5)C4)CC3)no2)C(C)C)cc1F (stereo partly drawn) [compound 501, (2S,4R)-1-(2-(3-(2-(4-((1r,3r)-3-((4-(3-(3-amino-6-(2-hydroxyphenyl)pyridazin-4-yl)-3,8-diazabicyclo[3.2.1]octan-8-yl)pyridin-2-yl)oxy)cyclobutoxy)piperidin-1-yl)ethoxy)isoxazol-5-yl)-3-methylbutanoyl)-N-((R)-1-(5-fluoro-6-(4-methylthiazol-5-yl)pyridin-3-yl)ethyl)-4-hydroxypyrrolidine-2-carboxamide]",–,–,> 75%,–,"DC50 (BRM degradation, read-out: BRM DC50): < 2.5 nM"
"Cc1ncsc1-c1ccc([C@H](C)NC(=O)[C@@H]2C[C@@H](O)CN2C(=O)[C@@H](c2cc(OCCN3CCN(CCO[C@H]4C[C@H](Oc5cc(N6C7CCC6CN(c6cc(-c8ccccc8O)nnc6N)C7)ccn5)C4)CC3)no2)C(C)C)cc1 [compound 408, (2S,4R)-1-((2R)-2-(3-(2-(4-(2-((1r,3r)-3-((4-(3-(3-amino-6-(2-hydroxyphenyl)pyridazin-4-yl)-3,8-diazabicyclo[3.2.1]octan-8-yl)pyridin-2-yl)oxy)cyclobutoxy)ethyl)piperazin-1-yl)ethoxy)isoxazol-5-yl)-3-methylbutanoyl)-4-hydroxy-N-((S)-1-(4-(4-methylthiazol-5-yl)phenyl)ethyl)pyrrolidine-2-carboxamide]",–,–,> 75%,< 2.5 nM,–
"Cc1ncsc1-c1ccc([C@H](C)NC(=O)[C@@H]2C[C@@H](O)CN2C(=O)[C@H](c2cc(OC/C=C/c3ncc(O[C@H]4C[C@H](Oc5cc(N6C7CCC6CN(c6cc(-c8ccccc8O)nnc6N)C7)ccn5)C4)cn3)no2)C(C)C)cc1 [compound 391, (2S,4R)-1-((2S)-2-(3-(((E)-3-(5-((1r,3S)-3-((4-(3-(3-amino-6-(2-hydroxyphenyl)pyridazin-4-yl)-3,8-diazabicyclo[3.2.1]octan-8-yl)pyridin-2-yl)oxy)cyclobutoxy)pyrimidin-2-yl)allyl)oxy)isoxazol-5-yl)-3-methylbutanoyl)-4-hydroxy-N-((S)-1-(4-(4-methylthiazol-5-yl)phenyl)ethyl)pyrrolidine-2-carboxamide]",–,–,–,–,"DC50 (target protein degradation, read-out: BRM DC50): > 30 nM"
"Cc1ncsc1-c1ccc([C@H](C)NC(=O)[C@@H]2C[C@@H](O)CN2C(=O)[C@@H](c2cc(OCC[C@H]3CCN(C[C@H]4C[C@H](Oc5cc(N6C7CCC6CN(c6cc(-c8ccccc8O)nnc6N)C7)ccn5)C4)[C@@H](C)[C@H]3C)no2)C(C)C)cc1 (single isomer, unassigned) [compound 586]",–,–,–,–,"Dmax (BRM degradation, SW1573 cells, Table 2D, read-out: **Dmax (%) (% degraded)): > 75%; DC50 (BRM degradation, SW1573 cells, Table 2D, read-out: *DC50): < 2.5 nM"
"Cc1cc([C@H](C(=O)N2C[C@H](O)C[C@H]2C(=O)N[C@@H](C)c2ccc(-c3scnc3C)cc2)[C@@H](C)COCCCCOc2cc(N3C4CCC3CN(c3cc(-c5ccccc5O)nnc3N)C4)ccn2)on1 [compound 432, (2S,4R)-1-((2R,3R)-4-(4-((4-(3-(3-amino-6-(2-hydroxyphenyl)pyridazin-4-yl)-3,8-diazabicyclo[3.2.1]octan-8-yl)pyridin-2-yl)oxy)butoxy)-3-methyl-2-(3-methylisoxazol-5-yl)butanoyl)-4-hydroxy-N-((S)-1-(4-(4-methylthiazol-5-yl)phenyl)ethyl)pyrrolidine-2-carboxamide]",–,–,> 75%,10 to 30 nM,–
"Cc1ncsc1-c1ccc([C@H](C)NC(=O)[C@@H]2C[C@@H](O)CN2C(=O)[C@H](c2cc(N3CCN(CC4CCN(C[C@H]5C[C@H](Oc6cc(N7C8CCC7CN(c7cc(-c9ccccc9O)nnc7N)C8)ccn6)C5)CC4)CC3)no2)C(C)C)cn1 [compound 426, (2S,4R)-1-((2S)-2-(3-(4-((1-(((11,3r)-3-((4-(3-(3-amino-6-(2-hydroxyphenyl)pyridazin-4-yl)-3,8-diazabicyclo[3.2.1]octan-8-yl)pyridin-2-yl)oxy)cyclobutyl)methyl)piperidin-4-yl)methyl)piperazin-1-yl)isoxazol-5-yl)-3-methylbutanoyl)-4-hydroxy-N-((S)-1-(6-(4-methylthiazol-5-yl)pyridin-3-yl)ethyl)pyrrolidine-2-carboxamide]",–,–,–,> 30 nM,–
"Cc1ncsc1-c1ccc(CNC(=O)[C@H]2C[C@H](O)CN2C(=O)C(c2cc(OCCN3CCN(CCOc4cc(N5C6CCC5CN(c5cc(-c7ccccc7O)nnc5N)C6)ccn4)CC3)no2)C(C)C)cc1 (stereo partly drawn) [compound 57, (2R,4S)-1-(2-(3-(2-(4-(2-((4-(3-(3-amino-6-(2-hydroxyphenyl)pyridazin-4-yl)-3,8-diazabicyclo[3.2.1]octan-8-yl)pyridin-2-yl)oxy)ethyl)piperazin-1-yl)ethoxy)isoxazol-5-yl)-3-methylbutanoyl)-4-hydroxy-N-(4-(4-methylthiazol-5-yl)benzyl)pyrrolidine-2-carboxamide]",–,–,–,–,"Dmax (BRM degradation, SW1573 cells, when tested at the top concentration of between 0.3 and 10 μM, read-out: Dmax (%) (% degraded)): < 50%"
"CC(=O)N1CC(NC(=O)[C@@H]2C[C@@H](O)CN2C(=O)[C@H](c2cc(OCCN3CCN(CCOc4cc(N5C6CCC5CN(c5cc(-c7ccccc7O)nnc5N)C6)ccn4)CC3)no2)C(C)C)(c2ccc(-c3scnc3C)cc2)C1 [compound 235, (2S,4R)-N-(1-acetyl-3-(4-(4-methylthiazol-5-yl)phenyl)azetidin-3-yl)-1-((2S)-2-(3-(2-(4-(2-((4-(3-(3-amino-6-(2-hydroxyphenyl)pyridazin-4-yl)-3,8-diazabicyclo[3.2.1]octan-8-yl)pyridin-2-yl)oxy)ethyl)piperazin-1-yl)ethoxy)isoxazol-5-yl)-3-methylbutanoyl)-4-hydroxypyrrolidine-2-carboxamide]",> 30 nM,–,–,–,–
"CCOC[C@H](NC(=O)[C@@H]1C[C@@H](O)CN1C(=O)[C@H](c1cc(OCCN2CCN(CCOc3cc(N4C5CCC4CN(c4cc(-c6ccccc6O)nnc4N)C5)ccn3)CC2)no1)C(C)C)c1ccc(-c2scnc2C)cc1 [compound 257, (2S,4R)-1-((2S)-2-(3-(2-(4-(2-((4-(3-(3-amino-6-(2-hydroxyphenyl)pyridazin-4-yl)-3,8-diazabicyclo[3.2.1]octan-8-yl)pyridin-2-yl)oxy)ethyl)piperazin-1-yl)ethoxy)isoxazol-5-yl)-3-methylbutanoyl)-N-((R)-2-ethoxy-1-(4-(4-methylthiazol-5-yl)phenyl)ethyl)-4-hydroxypyrrolidine-2-carboxamide]",2.5 to 10 nM,> 75%,–,–,–
